The results in this text go back to ChEMBL document CHEMBL1151292, “Antineoplastic activity and cytotoxicity of flavones, isoflavones, and flavanones” (1979).

One experiment relates to P1798. The experiment is described as follows: In vivo antitumor activity against mouse P1798 cells. It counts as functional, organism-based.
The next experiment relates to KB. Put plainly: Cytotoxicity against human KB cells. Type of experiment: functional. Particulars: read-out: ED50 (the source's name).
The subject of another experiment is Rattus norvegicus. The experiment is described as follows: In vivo antitumor activity against rat dunning leukemia cells. Type of experiment: functional, organism-based.
A further experiment has as its system L1210. The experiment is described as follows: In vivo antitumor activity against mouse L1210 cells. Type of experiment: functional, organism-based.
The subject of another experiment is CA-755. Put plainly: In vivo antitumor activity against mouse CA-755 cells. It counts as functional, organism-based.
A further experiment deals with P1. Put plainly: In vivo antitumor activity against hamster P1 cells. Particulars: Cricetinae. Type of experiment: functional, organism-based.
A further experiment deals with PX. Put plainly: In vivo antitumor activity against hamster PX cells. Type of experiment: functional, organism-based. Particulars: Cricetinae.
For the next experiment, the system named is CCRF S-180. The experiment is described as follows: In vivo antitumor activity against mouse S180 cells. It counts as functional, organism-based.

Values after ≈ are worked out from the molar mass of the structure shown. Active and inactive are the calls of the source. Unless noted, the rule behind the calls is not given here.

For `COc1cc(O)c2c(=O)cc(-c3ccccc3)oc2c1` [TECHTOCHRYSIN], the result in the experiment with P1798, in the experiment on Rattus norvegicus and in the experiment with L1210 was inactive. Moreover, in the experiment with KB, the EC50 is 49 µg/mL (≈ 183 µM).

Consider `COc1ccc(-c2cc(=O)c3c(OC)c(OC)c(OC)c(OC)c3o2)cc1` [TANGERETIN], for which the outcome in the experiment with CA-755, with L1210, in the experiment on P1 and in the experiment on CCRF S-180 was inactive. In addition, in the experiment on KB, the EC50 is 15 µg/mL (≈ 40.3 µM). For the same compound, in the experiment on PX, the outcome was Active.

With `O=c1cc(-c2ccc(O)cc2)oc2cc(O)cc(O)c12` [APIGENIN], the result in the experiment with P1798, with Rattus norvegicus and with L1210 was inactive. Besides, in the experiment with KB, the EC50 is 7.4 µg/mL (≈ 27.4 µM).
